# Experimental data: US20210177814A1, “USE OF GUANABENZ OR DERIVATES THEREOF FOR THE TREATMENT OF TYPE I IFN-DEPENDENT PATHOLOGIES” (INSERM (Institut National de la Santé et de la Recherche …, priority 2018, published 2021)
# Biological target: T1, TLR9 (Mus musculus, UniProt Q9EQU3)
# T1 construct: from tissue; host or cells: whole animal: C57BL/6, FVB and FVB GADD34ΔC/ΔC mice
# T1 sequence (Q9EQU3 26-1032): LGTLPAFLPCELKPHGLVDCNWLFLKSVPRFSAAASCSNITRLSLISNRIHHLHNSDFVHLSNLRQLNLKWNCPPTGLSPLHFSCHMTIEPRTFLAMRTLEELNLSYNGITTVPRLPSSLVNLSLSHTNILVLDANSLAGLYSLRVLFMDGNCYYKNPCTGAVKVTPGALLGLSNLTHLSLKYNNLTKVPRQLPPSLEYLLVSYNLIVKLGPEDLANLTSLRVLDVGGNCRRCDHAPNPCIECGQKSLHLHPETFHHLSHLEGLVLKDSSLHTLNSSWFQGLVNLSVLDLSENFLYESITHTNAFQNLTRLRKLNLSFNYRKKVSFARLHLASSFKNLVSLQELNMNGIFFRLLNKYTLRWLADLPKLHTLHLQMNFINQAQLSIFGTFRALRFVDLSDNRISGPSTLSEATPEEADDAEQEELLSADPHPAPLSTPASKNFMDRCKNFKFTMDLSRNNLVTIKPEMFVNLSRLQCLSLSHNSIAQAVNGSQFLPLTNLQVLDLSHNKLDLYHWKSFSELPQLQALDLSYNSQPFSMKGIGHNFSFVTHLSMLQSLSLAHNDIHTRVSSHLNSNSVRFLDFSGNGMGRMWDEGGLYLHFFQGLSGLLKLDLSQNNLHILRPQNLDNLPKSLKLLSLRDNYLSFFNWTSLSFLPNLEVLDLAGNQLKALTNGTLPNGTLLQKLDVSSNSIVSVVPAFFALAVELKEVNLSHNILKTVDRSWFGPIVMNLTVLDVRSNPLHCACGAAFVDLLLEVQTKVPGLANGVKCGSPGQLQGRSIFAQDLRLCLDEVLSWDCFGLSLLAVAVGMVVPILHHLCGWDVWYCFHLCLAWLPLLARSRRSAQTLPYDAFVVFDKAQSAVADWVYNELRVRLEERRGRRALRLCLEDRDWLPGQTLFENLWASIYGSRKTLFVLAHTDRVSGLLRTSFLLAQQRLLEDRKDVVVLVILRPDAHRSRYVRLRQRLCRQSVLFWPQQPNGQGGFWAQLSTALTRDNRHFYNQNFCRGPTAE
# Assay: D-galN/CpG ODN 1826 cytokine shock model
# Assay type: in vivo
# Protocol: WT and GADD34^ΔC/ΔC mice were injected with D-galN (20 mg/mouse), CpG ODN 1826 or PBS for control mice (50 μg/20 g), GBZ or clonidine (2 mg/kg). (A) Survival of C57/BL6 mice is represented as total percentage of survival after 48 h or in a Kaplan-Meier plot. (B) Survival of FVB (WT) and FVB GADD34^ΔC/ΔC mice is represented as total percentage of survival after 48 h or in a Kaplan-Meier plot. (C) The concentration of circulating TNF-α, IL-10 and IL-6 in C57/BL6 mice was measured after 1 h and/or 3 h of CpG ODN 1826. (D) Liver tissue damage and histology score were blindly determined by a professional anatomopathologist. Statistical significance was assigned on sample comparison by a one-way ANOVA, followed by Tukey range test and on the survival curve using log-rank test, followed by Benjamini-Yekutieli correction (* p<0.05; ** p<0.005; ***p<0.0005.).
# Wild type female mice C57BL/6 of 8 weeks of age were injected i.p. with 2 mg/kg of GBZ, clonidine or PBS/DMSO. One hour later, they were injected i.p. with 20 mg/mouse of d-GalN and ODN 1826 50 μg/20 g (or PBS). Mice survival was checked every 12 hours for up to 48 hours. For some experiments, blood sera were collected 1 and 3 h after the injection of D-galN. The serum was used to measure circulating cytokines (TNFα, IL-6, IFNβ IL-10, IL-12). For some experiments, the liver was collected for immunohistochemistry after two days. For i.p. injections, 1 ml syringes and 25 gauge needles were used. Blood was collected from the cheek with a 18 gauge needle; for the TMPD model, no more than 200 μL were collected each time, respecting the ethic statement.
# Mouse kidney and liver were fixed in 10% buffered formalin for 24 h, then the tissues were dehydrated and embedded in paraffin. Tissue sections of 3.5 μm were cut using the microtom Leica RM2245. Hematoxylin-eosin staining was effectuated automatically with Leica autostainer XL. Finally, the slides were mounted with entellan and kept at room temperature. Biopsies were analyzed by an anatomopathologist and the clinical score was assigned in a blinded way. Pictures were taken with Nikon Eclipse.
# • a) Lobular inflammation • 0—no inflammation, 1—mild lobular inflammation (<10% of liver parenchyma), 2—moderate lobular inflammation (10-50% of liver parenchyma), 3—severe lobular inflammation (>50% of liver parenchyma) • b) Portal inflammation • 0—no portal inflammation, 1—mild portal inflammation (<⅓ of portal tracts), 2—moderate portal inflammation (approximately 50% of portal tracks), 3—severe portal inflammation (>⅔ of portal tracts) • Portal and lobular inflammation score are added=inflammation score • c) Necrosis • 0—No necrosis, 1—<10% necrosis of liver parenchyma, 2—10-25% necrosis of liver parenchyma, 3—25% necrosis of liver parenchyma • Inflammation score and necrosis score are added=Total histologic score
# [1] = WT mice, 1 hour after CpG injection, 2 mg/kg
smiles,measurement,setting,value
"NC(N)=N/N=C/c1c(Cl)cccc1Cl [GBZ, 2-(2,6-dichlorobenzylidene)-hydrazinecarboximidamide]",survival after 48 h,"C57BL/6 WT mice, D-galN + CpG ODN 1826, compound 2 mg/kg i.p.",up to 70%
same,liver cells survival (liver examination and histological scores),"CpG-induced lethality, GBZ 2 mg/kg",little direct protective effect
same,survival,"FVB GADD34ΔC/ΔC mice, D-galN + CpG, GBZ 2 mg/kg",protected from death
same,decrease in efficiency of protection in GADD34ΔC/ΔC mice,"GADD34ΔC/ΔC vs WT mice, GBZ 2 mg/kg",~28%
same,production of IL-10,"WT mice after CpG injection, GBZ 2 mg/kg",strongly increased
same,circulating IL-6 plasma concentration,[1],strongly attenuated
same,circulating TNF-α plasma concentration,[1],strongly attenuated
